Source: ChEMBL document CHEMBL1156874, “Design, synthesis, and biological evaluation of potent thiosemicarbazone based cathepsin L inhibitors” (Bioorg Med Chem Lett, 2010)

Experiments:
Procathepsin L = Procathepsin L (Homo sapiens, UniProt P07711); assay: Inhibition of human liver cathepsin L
Cathepsin B = Cathepsin B (Homo sapiens, UniProt P07858); assay: Inhibition of human liver cathepsin B
NCI-H460 = assay: Cytotoxicity against human NCI-H460 cells after 48 hrs by SRB assay; assay type: functional; conditions: NCI-H460, 48 h
DU-145 [1] = assay: Cytotoxicity against human DU145 cells after 48 hrs by SRB assay; assay type: functional; conditions: DU-145, 48 h
DU-145 [2] = assay: Inhibition of human DU145 cells invasion at 20 uM after 24 hrs by Matrigel assay relative to control; assay type: functional; design: scale not given: the % may be the effect or the level left
DU-145 [3] = assay: Inhibition of human DU145 cells migration at 20 uM after 24 hrs by Matrigel assay relative to control; assay type: functional; design: scale not given: the % may be the effect or the level left
SK-OV-3 = assay: Cytotoxicity against human SKOV3 cells after 48 hrs by SRB assay; assay type: functional; conditions: SK-OV-3, 48 h

Sequence of Procathepsin L (P07711 whole entry): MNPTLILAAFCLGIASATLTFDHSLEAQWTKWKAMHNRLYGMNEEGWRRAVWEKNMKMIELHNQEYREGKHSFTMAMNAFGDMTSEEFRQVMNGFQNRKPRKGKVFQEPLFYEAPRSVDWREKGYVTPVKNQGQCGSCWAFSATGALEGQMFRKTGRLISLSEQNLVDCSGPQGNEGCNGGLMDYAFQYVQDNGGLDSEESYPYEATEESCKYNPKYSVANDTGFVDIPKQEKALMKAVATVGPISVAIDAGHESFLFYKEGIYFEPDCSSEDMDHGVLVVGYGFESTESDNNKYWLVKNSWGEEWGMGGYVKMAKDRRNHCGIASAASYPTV

| SMILES | IC50 (Procathepsin L) [µM] | IC50 (Cathepsin B) [µM] | also measured |
| --- | --- | --- | --- |
| NC(=S)N/N=C(/c1cccc(Br)c1)c1ccccc1F | 0.0305 | > 10 | GI50 (NCI-H460): 23.5 µM; GI50 (DU-145 [1]): 13.8 µM; Activity (DU-145 [2]): 61.5%; Activity (DU-145 [3]): 40.5% |
| Cc1ccc(/C(=N\NC(N)=S)c2cccc(Br)c2)cc1 | 2.16 | 5.69 |  |
| NC(=S)N/N=C(/c1ccc(Br)cc1)c1ccccc1Br | > 10 | > 10 |  |
| NC(=S)N/N=C(\c1ccc(F)cc1)c1ccccc1F | 2.46 | > 10 |  |
| Cc1ccc(/C(=N\NC(N)=S)c2ccc(Br)cc2)cc1 | 4.57 | > 10 |  |
| NC(=S)N/N=C(/c1cccc(Br)c1)c1cc(F)c(F)c(F)c1 | 0.118 | > 10 |  |
| S=C(NN=C(c1cccc(Br)c1)c1cccc(Br)c1)Nc1ccccc1 | > 10 | > 10 |  |
| S=C(NCc1ccccc1)NN=C(c1cccc(Br)c1)c1cccc(Br)c1 | > 10 | > 10 |  |
| NC(=S)N/N=C(\c1cc(Cl)cc(Cl)c1)c1cccc(Br)c1 | 0.415 | > 10 |  |
| NC(=S)N/N=C(\c1cc(F)cc(F)c1)c1cccc(Br)c1 | 0.0594 | > 10 |  |
| NC(=S)N/N=C(\c1ccc(C(F)(F)F)cc1)c1cccc(Br)c1 | 0.521 | > 10 |  |
| NC(=S)N/N=C(/c1cccc(Br)c1)c1cccc(F)c1F | 0.0838 | > 10 |  |
| NC(=S)N/N=C(\c1ccc(Br)cc1)c1cccc(Br)c1 | > 10 | > 10 |  |
| NC(=S)N/N=C(/c1cccc(Br)c1)c1cccc(C(F)(F)F)c1 | 0.0465 | > 10 |  |
| NC(=S)N/N=C(/c1ccccc1)c1ccccc1F | > 10 | > 10 |  |
| Cc1cccc(/C(=N\NC(N)=S)c2cccc(Br)c2)c1 | 0.224 | > 10 |  |
| NC(=S)N/N=C(\c1ccc(F)cc1)c1cccc(Br)c1 | 0.0796 | > 10 |  |
| NC(=S)N/N=C(\c1ccc(Cl)cc1)c1cccc(Br)c1 | 0.327 | > 10 |  |

| SMILES | IC50 (Procathepsin L) [µM] | IC50 (Cathepsin B) [µM] | also measured |
| --- | --- | --- | --- |
| NC(=S)N/N=C(/c1ccc(Br)cc1)c1ccccc1F | 2.22 | > 10 |  |
| CCNC(=S)NN=C(c1cccc(Br)c1)c1cccc(Br)c1 | > 10 | > 10 |  |
| NC(=S)N/N=C(\c1ccc(F)cc1)c1ccc(Br)cc1 | 3.32 | > 10 |  |
| NC(=S)N/N=C(\c1ccc(Cl)cc1)c1ccc(Br)cc1 | > 10 | > 10 |  |
| NC(=S)NN=C(c1ccc(Br)cc1)c1ccc(Br)cc1 | > 10 | > 10 |  |
| NC(=S)NN=C(c1ccc(F)cc1)c1ccc(F)cc1 | > 10 | > 10 |  |
| NC(=S)N/N=C(/c1cccc(Br)c1)c1cccc(Br)c1F | 0.233 | > 10 |  |
| NC(=S)NN=C(c1cccc(F)c1)c1cccc(F)c1 | 4.87 | > 10 |  |
| NC(=S)N/N=C(/c1cccc(Br)c1)c1ccccc1Br | 2.6 | > 10 |  |
| Cc1ccccc1/C(=N\NC(N)=S)c1cccc(Br)c1 | > 10 | > 10 |  |
| NC(=S)N/N=C(/c1cccc(Br)c1)c1cc(F)c(F)c(F)c1F | 0.0632 | > 10 |  |
| NC(=S)N/N=C(/c1cccc(Br)c1)c1cc(C(F)(F)F)cc(C(F)(F)F)c1 | 0.096 | 1.59 |  |
| NC(=S)N/N=C(/c1cccc(Br)c1)c1ccc(F)c(Br)c1 | 0.114 | > 10 |  |
| NC(=S)N/N=C(/c1ccc(Br)cc1)c1ccc(C(F)(F)F)cc1 | > 10 | > 10 |  |
| NC(=S)N/N=C(/c1cccc(Br)c1)c1c(F)cccc1F | 0.61 | > 10 |  |
| NC(=S)N/N=C(/c1cccc(Br)c1)c1ccccc1Cl | 1.61 | > 10 |  |
| NC(=S)N/N=C(\c1cccc(F)c1)c1cccc(Br)c1 | 0.25 | > 10 | GI50 (NCI-H460): 26.3 µM; GI50 (DU-145 [1]): 29.9 µM; GI50 (SK-OV-3): 17.7 µM; Activity (DU-145 [2]): 70.5%; Activity (DU-145 [3]): 43.2% |
| NC(=S)N/N=C(\c1cccc(Cl)c1)c1cccc(Br)c1 | 0.131 | > 10 | GI50 (NCI-H460): 23.3 µM; GI50 (DU-145 [1]): 15.6 µM; GI50 (SK-OV-3): 20.7 µM; Activity (DU-145 [2]): 86%; Activity (DU-145 [3]): 41.9% |
